Laboratory results taken from patent publication US7034056B2, “Aryl and biaryl compounds having MCH modulatory activity” (Pharmacopeia Drug Discovery, inc., priority 2001, dated 2006).
Where two headings read alike, the source gives them in different places.

Biological target: T1, hMCHR (MCH receptor) (Homo sapiens, UniProt Q99705)
T1 construct: (or internally produced); host or cells: CHO (Chinese hamster ovary) cells, membrane preparation
Test: MCH Assay PCOP Protocol ([125I]-MCH SPA binding to hMCHR-CHO membranes);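 on Activity (Ki range): A 0.4–50 nM B 51–500 nM C 501–2500 nM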
Procedure, shortened: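 SPA binding with 10 μg hMCHR-CHO membranes and WGA-SPA beads in 25 mM HEPES pH 7.4, 10 mM NaCl, 10 mM MgCl2, 5 mM MnCl2, 0.1% BSA.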

[1] = [125I]-MCH 0.5 nM, hMCHR-CHO membranes, read-out: Activity (ranges of Ki values)
[2] = [125I]-MCH binding to hMCHR-CHO membranes, class symbols for ranges of Ki, read-out: Activity (Ki range)
[3] = [125I]-MCH SPA binding, hMCHR-CHO membranes, Ki class ranges, read-out: Activity (range of Ki)

T1 sequence (Q99705 whole entry): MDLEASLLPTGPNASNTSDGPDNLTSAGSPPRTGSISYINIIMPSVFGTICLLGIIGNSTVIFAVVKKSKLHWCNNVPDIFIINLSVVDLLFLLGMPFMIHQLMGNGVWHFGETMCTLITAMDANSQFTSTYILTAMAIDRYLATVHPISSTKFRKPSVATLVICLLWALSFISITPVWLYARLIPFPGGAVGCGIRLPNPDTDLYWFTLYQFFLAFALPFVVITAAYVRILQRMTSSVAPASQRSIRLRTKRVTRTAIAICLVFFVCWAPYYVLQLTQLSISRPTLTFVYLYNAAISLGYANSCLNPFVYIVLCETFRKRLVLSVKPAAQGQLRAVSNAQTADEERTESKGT

| SMILES | Ki [1] [nM] | Ki [2] [nM] | other results |
| --- | --- | --- | --- |
| CC(=O)NC1CCN(CCC(CNC(=O)Nc2cc(Cl)cc(Cl)c2)c2ccc(C)cc2)CC1 (centres unmarked) [Example 206] | 501 to 2500 | – | – |
| O=C(NCC(CCNC1CCC1)c1ccc(Cl)c(Cl)c1)Nc1ccc(F)c([N+](=O)[O-])c1 (racemic) [Example 22] | 501 to 2500 | – | – |
| CC(=O)NC1CCN(CCC(CNC(=O)Nc2cc(Cl)cc(Cl)c2)c2ccc(Cl)c(Cl)c2)CC1 (centres unmarked) [Example 199] | 51 to 500 | – | – |
| CC1CCCN(CCC(CNC(=O)c2cc(C(F)(F)F)cc(C(F)(F)F)c2)c2ccc(Cl)c(Cl)c2)C1 (centres unmarked) [Example 417] | – | – | Ki [3]: 501 to 2500 nM |
| COc1cc(CNCCC(CNC(=O)Nc2ccc(F)c(F)c2)c2ccc(Cl)c(Cl)c2)cc(OC)c1OC (centres unmarked) [Example 131] | 51 to 500 | – | – |
| CN(C)CCCNCCC(CNC(=O)Nc1cc(Cl)cc(Cl)c1)c1cccc(-c2cc(C(F)(F)F)cc(C(F)(F)F)c2)c1 (centres unmarked) [Example 175] | 501 to 2500 | – | – |
| O=C(NCC(CCNC1CCCC1)c1cccc(-c2cccc(Cl)c2)c1)Nc1cc(Cl)cc(Cl)c1 (centres unmarked) [Example 158] | 51 to 500 | – | – |
| Cc1ccc(C(CCNC2CCCCC2)CNC(=O)Nc2cc(Cl)cc(Cl)c2)cc1 (centres unmarked) [Example 268] | – | 51 to 500 | – |
| CN(C)CCCNCCC(CNC(=O)Nc1cc(Cl)cc(Cl)c1)c1ccc(-c2ccc(OC(F)(F)F)cc2)cc1 (centres unmarked) [Example 101] | 51 to 500 | – | – |
| O=C(NCC(CCN1CCC(NC(=O)C2CCC2)CC1)c1ccc(Cl)cc1)Nc1cc(Cl)cc(Cl)c1 (centres unmarked) [Example 185] | 51 to 500 | – | – |
| CCOC(=O)N1CCC(NCCC(CNC(=O)Nc2cc(Cl)cc(Cl)c2)c2ccc(Cl)c(Cl)c2)CC1 (centres unmarked) [Example 277] | – | 51 to 500 | – |
| N#Cc1cccc(-c2ccc(C(CCNC3CCCC3)CNC(=O)Nc3ccc(F)c(F)c3)cc2)c1 (centres unmarked) [Example 74] | 0.4 to 50 | – | – |
| CN(C)CCCNCCC(CNC(=O)Nc1cc(Cl)cc(Cl)c1)c1cccc(-c2cccc(F)c2)c1 (centres unmarked) [Example 173] | 501 to 2500 | – | – |
| COc1cc(-c2ccc(C(CCNCCCN(C)C)CNC(=O)Nc3cc(Cl)cc(Cl)c3)cc2)cc(OC)c1OC (centres unmarked) [Example 257] | – | 501 to 2500 | – |
| COc1cc(-c2ccc(C(CCNC3CCCC3)CNC(=O)Nc3cc(Cl)cc(Cl)c3)cc2)cc(OC)c1OC (centres unmarked) [Example 228] | – | 51 to 500 | – |
| CNCCC(CNC(=O)Nc1cccc(F)c1)c1ccc(-c2cccc(C#N)c2)cc1 (centres unmarked) [Example 49] | 0.4 to 50 | – | – |
| CN(C)CCCNCCC(CNC(=O)Nc1cc(Cl)cc(Cl)c1)c1ccc(Cl)cc1 (centres unmarked) [Example 112] | 501 to 2500 | – | – |
| CC(CCNC1CCCC1)(CNC(=O)Nc1ccc(F)c([N+](=O)[O-])c1)c1ccc(Cl)c(Cl)c1 (centres unmarked) [Example 113] | 501 to 2500 | – | – |
| CC(=O)Nc1cccc(-c2cccc(C(CCNCCCN(C)C)CNC(=O)Nc3cc(Cl)cc(Cl)c3)c2)c1 (centres unmarked) [Example 168] | 501 to 2500 | – | – |
| Cc1ccc(C(CCNCCCN(C)C)CNC(=O)Nc2cc(Cl)cc(Cl)c2)cc1C (centres unmarked) [Example 118] | 501 to 2500 | – | – |
| CN(C)CCCNCCC(C)(CNC(=O)Nc1ccc(F)c(F)c1)c1ccc(Cl)c(Cl)c1 (centres unmarked) [Example 119] | 501 to 2500 | – | – |
| CS(=O)(=O)c1ccc(CNCCC(CNC(=O)Nc2cc(C(F)(F)F)cc(C(F)(F)F)c2)c2ccc(Cl)c(Cl)c2)cc1 (centres unmarked) [Example 436] | – | – | Ki [3]: 501 to 2500 nM |

Continued, in another order:

| Ki [1] [nM] | Ki [2] [nM] | SMILES | other results |
| --- | --- | --- | --- |
| – | 51 to 500 | O=C(NCC(CCNC1CCC1)c1ccc(Cl)c(Cl)c1)Nc1cc(C(F)(F)F)cc(C(F)(F)F)c1 (centres unmarked) [Example 314] | – |
| – | 501 to 2500 | O=C(NCC(CCN1CCC(N2CCCCC2)CC1)c1ccc(F)c(F)c1)Nc1ccc(Cl)c(Cl)c1 (centres unmarked) [Example 369] | – |
| – | 501 to 2500 | CN(C)CCCNCCC(CNC(=O)Nc1cc(C(F)(F)F)cc(C(F)(F)F)c1)c1ccc(Cl)cc1 (centres unmarked) [Example 337] | – |
| – | 51 to 500 | Cc1ccc(C(CCN2CCCCC2)CNC(=O)Nc2cc(Cl)ccc2Cl)cc1 (centres unmarked) [Example 353] | – |
| – | 501 to 2500 | O=C(NCC(CCN1CCC(N2CCCCC2)CC1)c1ccc(Cl)c(Cl)c1)Nc1cccc([N+](=O)[O-])c1 (centres unmarked) [Example 317] | – |
| – | 501 to 2500 | O=C(NCC(CCNCc1ccc2c(c1)OCO2)c1ccc(Cl)c(Cl)c1)Nc1ccc(Cl)c(Cl)c1 (centres unmarked) [Example 296] | – |
| – | 51 to 500 | O=C(NCC(CCNC1CCC1)c1ccc(Cl)c(Cl)c1)Nc1cccc(C(F)(F)F)c1 (centres unmarked) [Example 283] | – |
